For one data set, the target named is T1, TR-β (Homo sapiens, UniProt P10828).
T1 sequence (P10828 1-461): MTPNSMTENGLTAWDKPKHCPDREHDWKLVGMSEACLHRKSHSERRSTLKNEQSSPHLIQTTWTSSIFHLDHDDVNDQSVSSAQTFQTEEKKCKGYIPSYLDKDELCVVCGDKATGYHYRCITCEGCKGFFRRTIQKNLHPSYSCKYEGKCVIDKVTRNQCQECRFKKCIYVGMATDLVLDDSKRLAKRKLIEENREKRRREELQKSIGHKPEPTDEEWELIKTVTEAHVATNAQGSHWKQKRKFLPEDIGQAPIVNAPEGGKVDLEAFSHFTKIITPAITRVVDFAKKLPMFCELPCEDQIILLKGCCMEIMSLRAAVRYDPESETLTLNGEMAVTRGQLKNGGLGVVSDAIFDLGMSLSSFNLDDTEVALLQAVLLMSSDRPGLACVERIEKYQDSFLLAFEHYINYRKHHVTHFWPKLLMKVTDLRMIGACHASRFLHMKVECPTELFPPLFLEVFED
The data set is described as follows: In vitro TR-β activity (in-house protocol). In kind it is cell-based. Conditions: for fold induction at 0.001 µM: Conc. 1 nM; for fold induction at 0.001 µM / fold induction at 0.01 µM / fold induction at 0.1 µM / fold induction at 1 µM: read-out: TR-β Fold Induction w.r.t T3(100 nm); for fold induction at 0.01 µM: Conc. 10 nM; for fold induction at 0.1 µM: Conc. 100 nM; for fold induction at 1 µM: Conc. 1000 nM. Here is the method: (§1) Invitro TR-α & TR-β activities were determined as per in-house protocols and the results of representative compounds are provided in tables 1 & 2 below as a proof of the efficacies of the novel class of compounds disclosed above.

For another data set, the target named is T2, TR-α (Homo sapiens, UniProt P10827).
T2 sequence (P10827 1-410 isoform P10827-2): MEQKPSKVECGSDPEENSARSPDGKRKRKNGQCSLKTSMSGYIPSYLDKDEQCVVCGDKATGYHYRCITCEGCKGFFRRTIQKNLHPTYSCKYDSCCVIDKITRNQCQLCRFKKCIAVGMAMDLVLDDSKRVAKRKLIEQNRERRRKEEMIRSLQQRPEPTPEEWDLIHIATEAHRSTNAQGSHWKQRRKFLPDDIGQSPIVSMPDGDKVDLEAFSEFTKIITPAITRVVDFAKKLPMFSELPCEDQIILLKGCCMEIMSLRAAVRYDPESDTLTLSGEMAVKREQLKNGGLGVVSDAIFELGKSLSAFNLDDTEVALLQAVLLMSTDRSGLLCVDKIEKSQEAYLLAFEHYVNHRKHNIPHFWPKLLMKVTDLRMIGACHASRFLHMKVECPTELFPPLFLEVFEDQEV
The data set is described as follows: In vitro TR-α activity (in-house protocol). Type of data set: cell-based. As to the method: as §1

As for `CC(C)c1cc(Oc2c(Cl)cc(N(CC(=O)O)CC(=O)O)cc2Cl)ccc1O` [Example 31, {Carboxymethyl-[3,5-dichloro-4-(4-hydroxy-3-isopropyl-phenoxy)-phenyl]-amino}-acetic acid], on TR-β, the fold induction at 0.001 µM is 12.1, the fold induction at 0.01 µM turned out to be 27.8, the fold induction at 0.1 µM turned out to be 64.3 and the fold induction at 1 µM was found to be 75.2. Moreover, on TR-α (Conc. 1 nM), the “TR-α Fold Induction w.r.t T3(100 nm)” value was determined as 8.17. In addition, the “TR-α Fold Induction w.r.t T3(100 nm)” value at TR-α (Conc. 10 nM) is 17.06. The “TR-α Fold Induction w.r.t T3(100 nm)” value on TR-α (Conc. 100 nM) was found to be 50.99. Besides, the “TR-α Fold Induction w.r.t T3(100 nm)” value on TR-α (Conc. 1000 nM) worked out at 46.21.

Consider `CCOC(=O)N(CC(=O)O)c1cc(Cl)c(Oc2ccc(O)c(C(=O)c3cccc(Cl)c3)c2)c(Cl)c1` [Example 25, ({3,5-Dichloro-4-[3-(3-chloro-benzoyl)-4-hydroxy-phenoxy]-phenyl}-ethoxycarbonyl-amino)-acetic acid], for which, on TR-β, the fold induction at 0.001 µM is 10.9, the fold induction at 0.01 µM turned out to be 26.3, the fold induction at 0.1 µM is 70.1 and the fold induction at 1 µM worked out at 51.7. The “TR-α Fold Induction w.r.t T3(100 nm)” value at TR-α (Conc. 1 nM) amounted to 4.22. Besides, the “TR-α Fold Induction w.r.t T3(100 nm)” value at TR-α (Conc. 10 nM) is 8.55. Besides, the “TR-α Fold Induction w.r.t T3(100 nm)” value at TR-α (Conc. 100 nM) worked out at 12.70. At TR-α (Conc. 1000 nM), the “TR-α Fold Induction w.r.t T3(100 nm)” value came to 7.15.

By EC50 is commonly meant the concentration that produces a half-maximal response. Lower therefore signals higher potency in that assay. As to `CCC(C)c1cc(Oc2c(Cl)cc(N(CC(=O)O)C(=O)Oc3ccc(O)cc3)cc2Cl)ccc1O` (centres unmarked) [Example 23, [[4-(3-sec-Butyl-4-hydroxy-phenoxy)-3,5-dichloro-phenyl]-(4-hydroxy-phenoxycarbonyl)-amino]-acetic acid], the EC50 on TR-β was 2.6 nM; on TR-α it was 9.26 nM.

For the compound `O=C(O)CN(C(=O)Oc1ccc(O)cc1)c1cc(Cl)c(Oc2ccc(O)c(S(=O)(=O)N3CCOCC3)c2)c(Cl)c1` [Example 61, [{3,5-Dichloro-4-[4-hydroxy-3-(morpholine-4-sulfonyl)-phenoxy]-phenyl}-(4-hydroxy-phenoxycarbonyl)-amino]-acetic acid], the fold induction at 0.001 µM at TR-β came out at 10.2. Moreover, the fold induction at 0.01 µM at TR-β was 12.2. For the same compound, at TR-β, the fold induction at 0.1 µM amounted to 28.9. Also, the fold induction at 1 µM on TR-β came to 85.2. In addition, the “TR-α Fold Induction w.r.t T3(100 nm)” value at TR-α (Conc. 1 nM) was 11.55; at TR-α (Conc. 10 nM), 12.50; at TR-α (Conc. 100 nM), 12.30; at TR-α (Conc. 1000 nM), 28.11.

On to `O=C(O)CN(C(=O)Oc1ccc(O)cc1)c1cc(Cl)c(Oc2ccc(O)c(S(=O)(=O)N3CCCC3)c2)c(Cl)c1` [Example 63, [{3,5-Dichloro-4-[4-hydroxy-3-(pyrrolidine-1-sulfonyl)-phenoxy]-phenyl}-(4-hydroxy-phenoxycarbonyl)-amino]-acetic acid], for which the half-maximal effective concentration (EC50) on TR-β was 254 nM; at TR-α, 337 nM.

`CCOC(=O)N(CC(=O)O)c1cc(Cl)c(Oc2ccc(O)c(-c3ccccc3)c2)c(Cl)c1` [Example 14, {[3,5-Dichloro-4-(6-hydroxy-biphenyl-3-yloxy)-phenyl]-ethoxycarbonyl-amino}-acetic acid]: at TR-β, the fold induction at 0.01 µM was 16.4, the fold induction at 0.1 µM turned out to be 58.5 and the fold induction at 1 µM came out at 77.3. For the same compound, the “TR-α Fold Induction w.r.t T3(100 nm)” value on TR-α (Conc. 10 nM) is 11.10. For the same compound, the “TR-α Fold Induction w.r.t T3(100 nm)” value on TR-α (Conc. 100 nM) was determined as 36.30. Besides, on TR-α (Conc. 1000 nM), the “TR-α Fold Induction w.r.t T3(100 nm)” value was 45.90.

In the case of `CCOC(=O)N(CC(=O)O)c1cc(Cl)c(Oc2ccc(O)c(Cc3ccccc3)c2)c(Cl)c1` [Example 3, {[4-(3-Benzyl-4-hydroxy-phenoxy)-3,5-dichloro-phenyl]-ethoxycarbonyl-amino}-acetic acid], the results for the EC50 at TR-β and at TR-α were 89 nM and 274 nM, respectively.

As for `O=C(O)CN(C(=O)Oc1ccc(O)cc1)c1cc(Cl)c(Oc2ccc(O)c(C(=O)c3cccc(Cl)c3)c2)c(Cl)c1` [Example 47, [{3,5-Dichloro-4-[3-(3-chloro-benzoyl)-4-hydroxy-phenoxy]-phenyl}-(4-hydroxy-phenoxycarbonyl)-amino]-acetic acid], the EC50 at TR-β was found to be 11.3 nM; at TR-α it was 16.4 nM.

As to `O=C(O)CN(C(=O)Oc1ccc(O)cc1)c1cc(Cl)c(Oc2ccc(O)c(C(=O)c3ccc(Cl)cc3)c2)c(Cl)c1` [Example 44, [{3,5-Dichloro-4-[3-(4-chloro-benzoyl)-4-hydroxy-phenoxy]-phenyl}-(4-hydroxy-phenoxycarbonyl)-amino]-acetic acid], the 50% effective concentration (EC50) at TR-β stood at 14.8 nM; on TR-α, 84.8 nM.

As to `CC(C)c1cc(Oc2c(Cl)cc(N(CC(=O)O)C(=O)Oc3ccc(O)cc3)cc2Cl)ccc1O` [Example 32, [[3,5-Dichloro-4-(4-hydroxy-3-isopropyl-phenoxy)-phenyl]-(4-hydroxy-phenoxycarbonyl)-amino]-acetic acid], on TR-β, the fold induction at 0.001 µM stood at 24.7, the fold induction at 0.01 µM stood at 73.7, the fold induction at 0.1 µM amounted to 119 and the fold induction at 1 µM worked out at 94.9. For the same compound, the “TR-α Fold Induction w.r.t T3(100 nm)” value at TR-α (Conc. 1 nM) is reported as 23.36. For the same compound, at TR-α (Conc. 10 nM), the “TR-α Fold Induction w.r.t T3(100 nm)” value was determined as 74.20. Also, the “TR-α Fold Induction w.r.t T3(100 nm)” value at TR-α (Conc. 100 nM) was found to be 87.50. In addition, the “TR-α Fold Induction w.r.t T3(100 nm)” value at TR-α (Conc. 1000 nM) was determined as 72.37.

In the case of `CCOC(=O)N(CC(=O)O)c1cc(Cl)c(Oc2ccc(O)c(C(C)C)c2)c(Cl)c1` [Example 1, {[3,5-Dichloro-4-(4-hydroxy-3-isopropyl-phenoxy)-phenyl]-ethoxycarbonyl-amino}-acetic acid], the EC50 turned out to be 146 nM on TR-β and 440 nM at TR-α.

With `O=C(O)CN(CC(=O)O)c1cc(Cl)c(Oc2ccc(O)c(C(=O)c3ccc(Cl)cc3)c2)c(Cl)c1` [Example 28, (Carboxymethyl-{3,5-dichloro-4-[3-(4-chloro-benzoyl)-4-hydroxy-phenoxy]-phenyl}-amino)-acetic acid], on TR-β, the fold induction at 0.001 µM stood at 10.4, the fold induction at 0.01 µM is 20.9, the fold induction at 0.1 µM was determined as 45.4 and the fold induction at 1 µM worked out at 46.1. Besides, at TR-α (Conc. 1 nM), the “TR-α Fold Induction w.r.t T3(100 nm)” value came out at 8.97. Moreover, the “TR-α Fold Induction w.r.t T3(100 nm)” value on TR-α (Conc. 10 nM) turned out to be 14.71. In addition, on TR-α (Conc. 100 nM), the “TR-α Fold Induction w.r.t T3(100 nm)” value is 25.77. The “TR-α Fold Induction w.r.t T3(100 nm)” value on TR-α (Conc. 1000 nM) is reported as 33.47.

On to `O=C(O)CN(C(=O)Oc1ccc(O)cc1)c1cc(Br)c(Oc2ccc(O)c(C(=O)c3ccc(Cl)cc3)c2)c(Br)c1` [Example 67, [{3,5-Dibromo-4-[3-(4-chloro-benzoyl)-4-hydroxy-phenoxy]-phenyl}-(4-hydroxy-phenoxycarbonyl)-amino]-acetic acid], for which the results for the EC50 on TR-β and at TR-α were 12.8 nM and 49 nM, respectively.

For `CCC(C)c1cc(Oc2c(C)cc(N(CC(=O)O)CC(=O)O)cc2C)ccc1O` (centres unmarked) [Example 21, {[4-(3-sec-Butyl-4-hydroxy-phenoxy)-3,5-dimethyl-phenyl]-carboxymethyl-amino}-acetic acid], on TR-β, the fold induction at 0.001 µM was found to be 33.4, the fold induction at 0.01 µM was found to be 153, the fold induction at 0.1 µM came to 202 and the fold induction at 1 µM came out at 148. The “TR-α Fold Induction w.r.t T3(100 nm)” value at TR-α (Conc. 1 nM) came to 17.17. Also, on TR-α (Conc. 10 nM), the “TR-α Fold Induction w.r.t T3(100 nm)” value is 56.81. For the same compound, the “TR-α Fold Induction w.r.t T3(100 nm)” value on TR-α (Conc. 100 nM) worked out at 110.66. Further, on TR-α (Conc. 1000 nM), the “TR-α Fold Induction w.r.t T3(100 nm)” value is on record as 93.53.

These data come from patent US8420851B2, “Selective TR-β 1 agonist” (Cadila Healthcare Limited, priority 2006, dated 2013).
